According to patent US5446157A, “Boron difluoride compounds useful in photodynamic therapy and production of laser light” (priority 1993, dated 1995):
Structures can show the parent of a compound that is named as a salt.

Columns and labels:
[1] = Solubility/fluorescence in various solvents (Tables I, II); type: physicochemical
Protocol: In addition, tests were conducted on the product in order to determine its solubility/fluorescence in various solvents. One property of the compositions described herein involves a variable degree of solubility/fluorescence relative to the solvents with which they are combined. Data showing a variety of different solvents combined with the product of Example I is presented below in Table I:
As in Example I, tests were conducted on the product in Example II in order to determine its fluorescence in various solvents. Data showing a variety of different solvents combined with the product of Example II is presented below in Table II: […]

[2] = Photostability under irradiation with 250 watt sun lamp; type: physicochemical; settings: sun lamp, in M-1cm-1 (unit assumed)
Protocol: In addition, experiments were conducted in order to determine the photostability of the product of Example I. A solution was prepared by mixing 0.1 g of the product with 50 ml of dichloromethane solvent. The solution was placed in a 100 ml round bottom flask and irradiated with light from a sun lamp (250 watts at a distance of approximately 8 inches from the flask). […] However, another solution was made by combining 0.1 g of product in 250 ml of CH3 OH and 10 ml of CH2 Cl2. Addition of the CH2 Cl2 was undertaken to obtain complete dissolution. The solution was placed in a […] and irradiated as described above. […] Thus, the use of different solvents will cause a variation in both the character and duration of fluorescence.
In addition, a further test was conducted in order to determine the photostability of the product. Specifically, 2.0 mg of the product in a 100 ml round bottom flask was dissolved in 50 ml of H2 O. The solution was then irradiated by light from a 250 watt sun lamp placed approximately 8 inches from the flask. UV spectral data was recorded periodically as shown below in Table III.

- Solubility ([1]; (CF3)2 CHOH): Insoluble
- Solubility ([1]; CH2 Cl2): Insoluble
- Solubility ([1]; CH3 CO2 C2 H5): Insoluble
- Solubility ([1]; H2 O): Soluble
- Solubility ([1]; O(CH2 CH2)2 O): Insoluble
- ε492 (H2O) ([2]; 2.0 mg in 50 ml H2O, 0 hours): 76,995.38
- ε492 (H2O) ([2]; H2O, 0.5 hours): 76,755.22
- ε492 (H2O) ([2]; H2O, 1.0 hours): 75,556.52
- ε492 (H2O) ([2]; H2O, 1.5 hours): 76,755.52
- ε492 (H2O) ([2]; H2O, 2.5 hours): 75,316.35
- ε492 (H2O) ([2]; H2O, 3.5 hours): 73,757.26
- ε492 (H2O) ([2]; H2O, 6.0 hours): 69,799.55
- ε492 (H2O) ([2]; H2O, 20.0 hours): 52,049.62
- ε492 (H2O) ([2]; H2O, 21.5 hours): 51,569.90
- ε492 (H2O) ([2]; H2O, 23.5 hours): 46,173.05
- ε492 (H2O) ([2]; H2O, 25.5 hours): 45,573.40
- ε492 (H2O) ([2]; H2O, 28.0 hours): 41,016.06
- ε492 (H2O) ([2]; H2O, 30.5 hours): 37,178.46
- ε492 (H2O) ([2]; H2O, 44.0 hours): 20,388.19
- ε492 (H2O) ([2]; H2O, 50.0 hours): 13,192.355
- ε492 (H2O) ([2]; H2O, 52.5 hours): 599.653
Structure (SMILES): CC1=C(S(=O)(=O)O)C(C)=[N+]2C1=C(C)c1c(C)c(S(=O)(=O)O)c(C)n1[B-]2(F)F [PMPDS-BF2, Disodium salt of 4,4-difluoro-1,3,5,7,8-pentamethyl-4-bora-3a,4a-diaza-s-indacene-2,6-disulfonic acid monohydrate]
